In experiment [1] the target is T1, CDK1/CyclinB (Homo sapiens, UniProt P06493).
T1 construct: purchased Upstate Discovery
The experiment can be described thus: Activated CDK1/CyclinB kinase inhibitory activity assay. Type of experiment: biochemical. As to conditions: histone H1 substrate, γ33P-ATP filter assay; read-out: IC50 against CDK1 activity. The method, then: (§1) Activated CDK2/CyclinA (Brown et al, Nat. Cell Biol., 1, pp 438-443, 1999; Lowe, E. D., et al Biochemistry, 41, pp 15625-15634, 2002) is diluted to 125 pM in 2.5× strength assay buffer (50 mM MOPS pH 7.2, 62.5 mM β-glycerophosphate, 12.5 mM EDTA, 37.5 mM MgCl2, […], 2.5 mM DTT, 2.5 mM sodium orthovanadate, 0.25 mg/ml bovine serum albumin), and 10 μl mixed with 10 μl of histone substrate mix (60 μl bovine histone H1 (Upstate Biotechnology, 5 mg/ml), 940 μl H2O, 35 μCi γ^33P-ATP) and added to 96 well plates along with 5 μl of various dilutions of the test compound in DMSO (up to 2.5%). The reaction is allowed to proceed for 2 to 4 hours before being stopped with an excess of ortho-phosphoric acid (5 μl at 2%).
(§2) γ^33P-ATP which remains unincorporated into the histone H1 is separated from phosphorylated histone H1 on a Millipore MAPH filter plate. The wells of the MAPH plate are wetted with 0.5% orthophosphoric acid, and then the results of the reaction are filtered with a Millipore vacuum filtration unit through the wells. Following filtration, the residue is washed twice with 200 μl of 0.5% orthophosphoric acid. Once the filters have dried, 20 μl of Microscint 20 scintillant is added, and then counted on a Packard Topcount for 30 seconds.
(§3) The % inhibition of the CDK2 activity is calculated and plotted in order to determine the concentration of test compound required to inhibit 50% of the CDK2 activity (IC50).
CDK1/CyclinB assay is identical to the CDK2/CyclinA above except that CDK1/CyclinB (Upstate Discovery) is used and the enzyme is diluted to 6.25 nM.

For experiment [2], the target named is Activated CDK2/CyclinA (Homo sapiens, UniProt P24941). Kind of experiment: Activated CDK2/CyclinA kinase inhibitory activity assay. The format is biochemical. As to conditions: histone H1 substrate, γ33P-ATP filter assay; read-out: IC50 against CDK2 activity. The method, then:
Compounds of the invention were tested for kinase inhibitory activity using the following protocol.
as §1, §2, §3

A word on the IC50: it is the midpoint of a concentration-inhibition curve.

T1 sequence (P06493 whole entry): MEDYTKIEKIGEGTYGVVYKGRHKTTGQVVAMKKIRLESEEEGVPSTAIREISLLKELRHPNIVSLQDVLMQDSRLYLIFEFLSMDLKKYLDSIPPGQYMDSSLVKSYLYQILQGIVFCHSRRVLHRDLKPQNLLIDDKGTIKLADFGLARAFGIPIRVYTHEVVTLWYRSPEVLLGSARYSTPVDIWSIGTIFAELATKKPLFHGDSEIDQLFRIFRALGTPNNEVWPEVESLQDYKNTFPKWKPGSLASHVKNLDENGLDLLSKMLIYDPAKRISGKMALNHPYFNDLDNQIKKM
T1 sequence (P14635 whole entry partner): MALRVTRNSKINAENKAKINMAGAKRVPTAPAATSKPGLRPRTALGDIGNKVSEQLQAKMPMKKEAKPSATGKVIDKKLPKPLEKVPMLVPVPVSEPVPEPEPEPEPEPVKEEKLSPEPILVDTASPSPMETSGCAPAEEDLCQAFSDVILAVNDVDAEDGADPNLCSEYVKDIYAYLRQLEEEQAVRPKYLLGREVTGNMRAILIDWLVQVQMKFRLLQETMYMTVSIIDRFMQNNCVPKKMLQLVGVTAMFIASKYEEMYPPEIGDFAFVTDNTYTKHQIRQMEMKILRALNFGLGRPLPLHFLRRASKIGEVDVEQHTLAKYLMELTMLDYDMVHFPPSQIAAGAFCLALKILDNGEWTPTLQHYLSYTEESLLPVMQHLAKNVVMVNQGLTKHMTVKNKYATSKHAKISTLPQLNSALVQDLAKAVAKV

Regarding `O=C(Nc1c[nH]nc1-c1nc2cc[nH]c(=O)c2[nH]1)c1c(F)cccc1F` [Example 1, 2,6-difluoro-N-[3-(4-oxo-4,5-dihydro-3H-imidazo[4,5-c]pyridin-2-yl)-1H-pyrazol-4-yl]-benzamide], the IC50 in experiment [1] and in experiment [2] was < 1000 nM throughout.

For `CCN1CCc2[nH]c(-c3n[nH]cc3NC(=O)c3c(F)cccc3F)nc2C1` [Example 6, N-[3-(5-ethyl-4,5,6,7-tetrahydro-1H-imidazo[4,5-c]pyridine-2-yl)-1H-pyrazol-4-yl]-2,6-difluoro-benzamide], the half-inhibitory concentration (IC50) in experiment [1] and in experiment [2] was < 1000 nM in each case.

Consider `O=C(Nc1c[nH]nc1-c1nc2c([nH]1)CCNC2)c1c(F)cccc1F` [Example 4, 2,6-difluoro-N-[3-(4,5,6,7-tetrahydro-1H-imidazol[4,5-c]pyridin-2-yl)-1H-pyrazol-4-yl]-benzamide], for which the concentration for half-maximal inhibition (IC50) in experiment [1] and in experiment [2] was < 1000 nM throughout.

With `O=C(Nc1c[nH]nc1-c1nc2c([nH]1)CCN(CCF)C2)c1c(F)cccc1F` [Example 7, 2,6-difluoro-N-{3-[5-(2-fluoro-ethyl)-4,5,6,7-tetrahydro-1H-imidazol[4,5-c]pyridine-2-yl]-1H-pyrazol-4-yl}-benzamide], the IC50 in experiment [1] and in experiment [2] was < 1000 nM in each case.

The values are drawn from patent US20080004270A1, “3,4-Disubstituted Pyrazoles as Cyclin Dependent Kinases (Cdk) or Aurora Kinase or Glycogen Synthase 3 (Gsk-3) Inhibitors” (ASTEX THERAPEUTICS LIMITED, priority 2004, published 2008).
